In patent US20220089575A1, “FARNESOID X RECEPTOR AGONISTS AND USES THEREOF” (Metacrine, Inc., priority 2017, published 2022):

Each compound was assayed against T1, hFXR (Homo sapiens, UniProt Q96RI1) (assay: In Vitro FXR Assay (TK): TK-ECRE-luc reporter in transfected CV-1 cells). Details: 18 hrs, luminescence, maximum efficacy of <25% of the Fexarmine control classified as '+'.
T1 construct: expressed in transfected cells; host or cells: CV-1 cells
T1 sequence (Q96RI1 1-486): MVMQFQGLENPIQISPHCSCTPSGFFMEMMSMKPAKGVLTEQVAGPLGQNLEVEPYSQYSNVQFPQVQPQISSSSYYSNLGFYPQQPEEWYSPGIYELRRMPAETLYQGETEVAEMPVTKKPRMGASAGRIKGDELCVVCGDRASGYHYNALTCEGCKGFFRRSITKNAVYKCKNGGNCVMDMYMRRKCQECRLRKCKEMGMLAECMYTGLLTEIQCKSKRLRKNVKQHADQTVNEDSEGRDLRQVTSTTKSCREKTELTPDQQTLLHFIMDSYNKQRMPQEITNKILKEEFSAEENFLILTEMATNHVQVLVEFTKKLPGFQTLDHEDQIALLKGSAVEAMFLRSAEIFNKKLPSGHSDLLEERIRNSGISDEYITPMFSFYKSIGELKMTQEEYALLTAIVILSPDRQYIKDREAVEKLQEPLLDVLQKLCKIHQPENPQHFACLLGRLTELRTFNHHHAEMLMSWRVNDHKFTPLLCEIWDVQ
T1 sequence (P19793 1-462 partner): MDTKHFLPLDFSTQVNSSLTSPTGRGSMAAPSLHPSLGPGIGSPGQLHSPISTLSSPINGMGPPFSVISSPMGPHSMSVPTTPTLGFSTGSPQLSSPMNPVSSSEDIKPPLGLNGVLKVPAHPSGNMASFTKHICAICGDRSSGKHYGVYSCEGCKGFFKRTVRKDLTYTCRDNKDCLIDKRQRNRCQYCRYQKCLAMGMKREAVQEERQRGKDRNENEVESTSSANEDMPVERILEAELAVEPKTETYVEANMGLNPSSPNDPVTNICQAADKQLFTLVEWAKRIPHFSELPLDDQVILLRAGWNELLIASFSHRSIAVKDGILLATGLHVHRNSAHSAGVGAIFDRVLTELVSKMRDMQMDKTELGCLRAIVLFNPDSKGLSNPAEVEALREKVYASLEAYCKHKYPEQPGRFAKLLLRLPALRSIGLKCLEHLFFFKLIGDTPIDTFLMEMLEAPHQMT
Assay type: cell-based
Procedure, shortened: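 Cells are seeded in charcoal double-stripped FBS medium, transfected overnight with FXR/RXR expression and ECRE-driven luciferase reporter plasmids, then treated with serially diluted compounds for 18 h. Lysates are measured for luciferase light output.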

EC50, ≤ 250 nM:
COc1ccc([C@H]2CC[C@H](CN(c3cc(-c4cnc(C(C)C)s4)ccn3)C(=O)[C@H]3CC[C@H](OC(=O)NCCO)CC3)CC2)cc1C [Compound 6.03, trans-4-((4-(2-Isopropylthiazol-5-yl)pyridin-2-yl)((trans-4-(4-methoxy-3-methylphenyl)cyclohexyl)methyl)carbamoyl)cyclohexyl (2-hydroxyethyl) carbamate]
COc1ccc([C@H]2CC[C@H](CN(c3cccc(-c4cnc(C(C)C)s4)c3)C(=O)[C@H]3CC[C@H](OC(=O)NCCO)CC3)CC2)nc1C [Compound 6.04, trans-4-((3-(2-Isopropylthiazol-5-yl)phenyl)((trans-4-(5-methoxy-6-methylpyridin-2-yl)cyclohexyl)methyl)carbamoyl)cyclohexyl (2-hydroxyethyl)carbamate]
COc1ccc([C@H]2CC[C@H](CN(c3cccc(-c4cnc(C(C)C)s4)c3)C(=O)[C@H]3CC[C@H](OC(=O)NCCCO)CC3)CC2)nc1C [Compound 6.05]
COc1ccc([C@H]2CC[C@H](CN(c3cccc(-c4cnc(C5CC5)s4)c3)C(=O)[C@H]3CC[C@H](OC(=O)NCCO)CC3)CC2)nc1C#N [Compound 6.06, trans-4-(((trans-4-(6-Cyano-5-methoxypyridin-2-yl)cyclohexyl)methyl) (3-(2-cyclopropylthiazol-5-yl)phenyl)carbamoyl)cyclohexyl (2-hydroxyethyl)carbamate]
COc1ccc([C@H]2CC[C@H](CN(c3cccc(-c4cnc(C5CC5)s4)c3)C(=O)[C@H]3CC[C@H](OC(=O)NCCO)CC3)CC2)nc1C [Compound 6.07, trans-4-((3-(2-Cyclopropylthiazol-5-yl)phenyl)((trans-4-(5-methoxy-6-methylpyridin-2-yl)cyclohexyl)methyl)carbamoyl)cyclohexyl (2-hydroxyethyl)carbamate]
CN(C)c1ccc([C@H]2CC[C@H](CN(c3cccc(-c4cnn(C5CC5)c4)c3)C(=O)[C@H]3CC[C@H](OC(=O)NCCO)CC3)CC2)cn1 [Compound 6.08, trans-4-((3-(1-Cyclopropyl-1H-pyrazol-4-yl)phenyl)((trans-4-(6-(dimethylamino)pyridin-3-yl)cyclohexyl)methyl)carbamoyl)cyclohexyl (2-hydroxyethyl)carbamate]
COc1ccc([C@H]2CC[C@H](CN(c3cccc(-c4cnn(C(C)C)c4)c3)C(=O)[C@H]3CC[C@H](OC(=O)NCCO)CC3)CC2)cc1C [Compound 6.09, trans-4-((3-(1-Isopropyl-1H-pyrazol-4-yl)phenyl)((trans-4-(4-methoxy-3-methylphenyl)cyclohexyl)methyl)carbamoyl)cyclohexyl (2-hydroxyethyl) carbamate]
COCCNC(=O)O[C@H]1CC[C@H](C(=O)N(C[C@H]2CC[C@H](c3ccc(OC)c(C)c3)CC2)c2cccc(-c3cnn(C4CC4)c3)c2)CC1 [Compound 6.10, trans-4-((3-(1-Cyclopropyl-1H-pyrazol-4-yl)phenyl)((trans-4-(4-methoxy-3-methylphenyl)cyclohexyl)methyl)carbamoyl)cyclohexyl (2-methoxyethyl) carbamate]
COc1ccc([C@H]2CC[C@H](CN(c3cccc(-c4cnn(C5CC5)c4)c3)C(=O)[C@H]3CC[C@H](OC(=O)NC(CO)CO)CC3)CC2)cc1C [Compound 6.11, trans-4-((3-(1-Cyclopropyl-1H-pyrazol-4-yl)phenyl)((trans-4-(4-methoxy-3-methylphenyl)cyclohexyl)methyl)carbamoyl)cyclohexyl (1,3-dihydroxypropan-2-yl)carbamate]
COc1ccc([C@H]2CC[C@H](CN(c3cccc(-c4cnn(C5CC5)c4)c3)C(=O)[C@H]3CC[C@H](OC(=O)NC[C@H](O)CO)CC3)CC2)cc1C [Compound 6.12, trans-4-((3-(1-Cyclopropyl-1H-pyrazol-4-yl)phenyl)((trans-4-(4-methoxy-3-methylphenyl)cyclohexyl)methyl)carbamoyl)cyclohexyl ((S)-2,3-dihydroxypropyl)carbamate]
COc1ccc([C@H]2CC[C@H](CN(c3cccc(-c4cnn(C5CC5)c4)c3)C(=O)[C@H]3CC[C@H](OC(=O)NC[C@@H](O)CO)CC3)CC2)cc1C [Compound 6.13, trans-4-((3-(1-Cyclopropyl-1H-pyrazol-4-yl)phenyl)((trans-4-(4-methoxy-3-methylphenyl)cyclohexyl)methyl)carbamoyl)cyclohexyl ((R)-2,3-dihydroxypropyl)carbamate]
COc1ccc([C@H]2CC[C@H](CN(c3cccc(-c4cnn(C(C)C)c4)c3)C(=O)[C@H]3CC[C@H](OC(=O)NCCCO)CC3)CC2)cc1C [Compound 6.14, trans-4-((3-(1-Isopropyl-1H-pyrazol-4-yl)phenyl)((trans-4-(4-methoxy-3-methylphenyl)cyclohexyl)methyl)carbamoyl)cyclohexyl (3-hydroxypropyl)carbamate]
COc1ccc([C@H]2CC[C@H](CN(c3cccc(-c4cnn(C(C)C)c4)c3)C(=O)[C@H]3CC[C@H](OC(=O)NCCO)CC3)CC2)nc1C [Compound 6.15, trans-4-((3-(1-Isopropyl-1H-pyrazol-4-yl)phenyl)((trans-4-(5-methoxy-6-methylpyridin-2-yl)cyclohexyl)methyl)carbamoyl)cyclohexyl (2-hydroxyethyl)carbamate]
COc1ccc([C@H]2CC[C@H](CN(c3cccc(-c4cnn(C(C)C)c4)c3)C(=O)[C@H]3CC[C@H](OC(=O)NCCCO)CC3)CC2)nc1C [Compound 6.16, trans-4-((3-(1-Isopropyl-1H-pyrazol-4-yl)phenyl)((trans-4-(5-methoxy-6-methylpyridin-2-yl)cyclohexyl)methyl)carbamoyl)cyclohexyl (3-hydroxypropyl)carbamate]
COc1ccc([C@H]2CC[C@H](CN(c3cc(-c4cnn(C(C)C)c4)ccn3)C(=O)[C@H]3CC[C@H](OC(=O)NCCO)CC3)CC2)cc1C [Compound 6.17, trans-4-((4-(1-Isopropyl-1H-pyrazol-4-yl)pyridin-2-yl)((trans-4-(4-methoxy-3-methylphenyl)cyclohexyl)methyl)carbamoyl)cyclohexyl (2-hydroxyethyl)carbamate]
COc1ccc([C@H]2CC[C@H](CN(c3cccc(-c4cnn(C5CC5)c4)c3)C(=O)[C@H]3CC[C@H](OC(=O)NC4CN(C)C4)CC3)CC2)cc1C [Compound 6.18, trans-4-((3-(1-Cyclopropyl-1H-pyrazol-4-yl)phenyl)((trans-4-(4-methoxy-3-methylphenyl)cyclohexyl)methyl)carbamoyl)cyclohexyl (1-methylazetidin-3-yl)carbamate]
COc1ccc([C@H]2CC[C@H](CN(c3cccc(-c4cnn(C5CC5)c4)c3)C(=O)[C@H]3CC[C@H](OC(=O)NCCO)CC3)CC2)cc1C#N [Compound 6.19, trans-4-(((trans-4-(3-Cyano-4-methoxyphenyl)cyclohexyl)methyl)(3-(1-cyclopropyl-1H-pyrazol-4-yl)phenyl)carbamoyl)cyclohexyl (2-hydroxyethyl)carbamate]
COc1ccc([C@H]2CC[C@H](CN(c3cccc(-c4cnn(C(C)C)c4)c3)C(=O)[C@H]3CC[C@H](OC(=O)NCCO)CC3)CC2)cc1C#N [Compound 6.20, trans-4-(((trans-4-(3-Cyano-4-methoxyphenyl)cyclohexyl)methyl)(3-(1-isopropyl-1H-pyrazol-4-yl)phenyl)carbamoyl)cyclohexyl (2-hydroxyethyl)carbamate]
COc1ccc([C@H]2CC[C@H](CN(c3cc(-c4cnn(C5CC5)c4)ccn3)C(=O)[C@H]3CC[C@H](OC(=O)NCCO)CC3)CC2)cc1C#N [Compound 6.21, trans-4-(((trans-4-(3-Cyano-4-methoxyphenyl)cyclohexyl)methyl)(4-(1-cyclopropyl-1H-pyrazol-4-yl)pyridin-2-yl)carbamoyl)cyclohexyl (2-hydroxyethyl)carbamate]
COc1ccc([C@H]2CC[C@H](CN(c3cc(-c4cnn(C(C)C)c4)ccn3)C(=O)[C@H]3CC[C@H](OC(=O)NCCO)CC3)CC2)cc1C#N [Compound 6.22, trans-4-(((trans-4-(3-Cyano-4-methoxyphenyl)cyclohexyl)methyl)(4-(1-isopropyl-1H-pyrazol-4-yl)pyridin-2-yl)carbamoyl)cyclohexyl (2-hydroxyethyl)carbamate]
